In PubChem BioAssay AID720665 (NMMLSC, 2013):
Records with an inconclusive call do not appear. Active and inactive are the calls of the source.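 The calls were made as follows: active = inhibition of the calcium rise above 50%; inconclusive = dimming of resting cell dye signal by over 25%; inactive = inhibition below 50%.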

Tested on: TALL-104 thapsigargin calcium, Fura Red flow cytometry
Experiment: inhibitors of thapsigargin-evoked calcium rise, mechanism study for lytic granule exocytosis inhibitor project, Fura Red, TALL-104 cells, CherryPick01 (AID 720665)
Conditions: hits give high values; dose or concentration not given here

| Compound | inhibition |
| --- | --- |
| O=C(CN1C(=O)/C(=C\c2cccc(Br)c2)Oc2ccccc21)NCCCN1CCOCC1 | 1% (inactive) |
| Fc1ccc(/C=C\c2nccc3c2[nH]c2ccccc23)cc1 | 37.7% (inactive) |
